Experimental data as given in patent US10342480B2, “Magnetoencephalography biomarkers of GABA-B agonist drug activity in autism spectrum disorders” (THE CHILDREN'S HOSPITAL OF PHILADELPHIA, priority 2013, dated 2019).

What was measured:
baseline gamma power = conditions: NMDAR antagonists; in vivo LFP and EEG recordings in awake rodents; cited from earlier work
[1] = system: auditory brain activity (M100 latency, gamma-band ITC, steady state gamma) in autism; assay: Magnetoencephalography (MEG) of auditory responses at baseline and 12 weeks after treatment, single subject from clinical trial; format: in vivo, human
Method: FIG. 5 provides graphs of M100 latency in autism in response to STX209, showing baseline and post-treatment.
To measure M100 STG latency, a 1 Hz (6 dB/octave, forward) to 40 Hz (48 dB/octave, zero-phase) bandpass filter was applied and left and right M100 STG peak latency (measured in nano-Ampere-meters, nAm) was calculated from the largest point in the M100 scoring window (90 to 190 ms) using in-house MatLab software.
The calculation of single-trial phase and magnitude for the left and right STG sources used a modification of procedures (Hoechstetter et al. (2004) Brain Topogr, 16:233-8.) where in each participant the derived source model was applied to the raw unfiltered data. Transformation from the time domain to the time-frequency domain used complex demodulation procedures (Papp et al. (1977) Biomed Sci Instrum, 13:135-45) implemented in BESA 5.2, using frequencies between 4 and 80 Hz, in steps of 2 Hz.1 Continuous data were analyzed relative to the tone onset every 25 ms, utilizing +/−39.4 ms and +/−2.83 Hz (full width at half maximum parameters) of contiguous data at each 25 ms step. Time-frequency measures were computed from −400 to 400 ms relative to stimulus onset. For evoked activity, background activity at each frequency (average power −400 to −100 ms) was calculated and subtracted as a function of frequency. In addition to evoked activity, for each time-frequency bin, a measure of phase-locking referred to as inter-trial coherence was computed as
[formula] where the sum is over all N trials, and Ø (k) is the phase of the signal in the k^th trial. Inter-trial coherence (ITC) is a normalized measure with ITC=1 reflecting no phase variability and ITC=0 reflecting maximal phase variability across trials (Lachaux et al. (1999) Hum. Brain Mapp, 8:194-208). Group Comparisons
A single subject from a recent phase/T clinical trial of STX209 (arbaclofen), a […] agonist, underwent MEG at baseline and at 12 weeks after treatment. […] Indeed, a reduction in 100 ms latency for 4 stimuli in both hemispheres was observed.

Compound | baseline gamma power (baseline gamma power) | auditory M100 latency ([1]; MEG at baseline vs 12 weeks after treatment, 4 stimuli, both hemispheres, FIG. 5) | gamma-band inter-trial coherence (ITC) ([1]; MEG at baseline vs 12 weeks after treatment, both hemispheres, FIG. 6) | steady state gamma power ([1]; baseline vs post-treatment, elicited by AM tone, driven at 40 Hz, FIG. 7)
CNC1(c2ccccc2Cl)CCCCC1=O (stereo not drawn) [ketamine] | dose-dependent increase in baseline gamma power |  |  | 
NC[C@H](CC(=O)O)c1ccc(Cl)cc1 [STX209, arbaclofen] |  | shortened post-treatment | gamma band ITC was restored after treatment | boosted post-treatment
C[C@]12N[C@H](Cc3ccccc31)c1ccccc12 [MK-801] | dose-dependent increase in baseline gamma power |  |  | 
c1ccc(C2(N3CCCCC3)CCCCC2)cc1 [PCP] | dose-dependent increase in baseline gamma power |  |  | 
